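Results reflect a 48-hour exposure of cells in 96-well plates to compound at five concentrations. TGI: total growth inhibition.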

The subject of one test is MALME-3M melanoma. The test can be described thus: NCI tumour cell line growth inhibition, 48 h.
As to `Cc1ccc(Cl)c2[nH]c(-c3ccccc3)cc(=O)c12`, the TGI was greater than 100 µM.

Molecule `CC(C)(C)OC(=O)NCCCCC1NC(=O)[C@@H]2Cc3c([nH]c4ccccc34)C(C3CCCCC3)N2C1=O` (stereo partly specified) had a TGI greater than 100 µM.

Take `O=[N+]([O-])c1ccc2c(c1)c(OCc1ccccc1)nn2Cc1ccccc1`: the TGI was greater than 100 µM.

Turning to `O=C1CCCc2cc3c(cc21)CC1(Cc2ccccc2C1)C3`, the TGI was determined as 70.1 µM.

With `COC(=O)c1ccccc1CC1Cc2ccc3c(c2C1=O)CCCC3` (stereo unspecified), the TGI is greater than 82.5 µM.

In turn, `N#CC1(C#N)N[C@@H](c2ccsc2)[C@H]2C(=O)N(c3ccccc3)C(=O)[C@H]21` yielded a TGI greater than 100 µM.

For the next test, the system named is SF-539 CNS. The test can be described thus: NCI tumour cell line growth inhibition, 48 h.
The molecule `COc1ccc(-c2cc(O)c3nc4ccccc4n3c2)cc1` displayed a TGI greater than 100 µM.

Turning to `CCOC(=O)c1csc(NC(=O)CN2CCOCC2)n1`, the TGI is greater than 100 µM.

`Cc1ccc(N=NC(=Nc2ccccc2)c2ccc(N(CCC#N)CCC#N)cc2)cc1` yielded a TGI greater than 100 µM.

For `C[C@@H]1CC[C@]2(C(=O)O)CC[C@]3(C)C(=CC[C@@H]4[C@@]5(C)CC[C@H](O)C(C)(C)[C@@H]5CC[C@]43C)[C@@H]2[C@]1(C)O`, the TGI turned out to be 12 µM.

`O=C(N/N=C(/COc1ccc(Cl)cc1)N=Cc1ccncc1)c1ccncc1` showed a TGI greater than 100 µM.

As for `C1CN(c2nc3c(nnc4nc(N5CCOCC5)sc43)s2)CCO1`, the TGI is greater than 100 µM.

Consider `COc1ccc(N/N=C2\CCOc3ccc(C)cc3C2=O)cc1`, for which the TGI is greater than 100 µM.

As for `ClCCN1CCC2(CC1)SSC1(CCN(CCCl)CC1)S2`, the TGI came to 56.3 µM.

In turn, `Cc1nc2n(c1/C=C1/C(=O)Nc3cccc(Cl)c31)CCS2` showed a TGI of 35.2 µM.

Regarding `CCOC(=O)C(SCCO)C(C(=O)OCC)n1cnc2c(=O)[nH]c(NC(C)=O)nc21` (stereo unspecified), the TGI was greater than 100 µM.

For `c1ccc(-c2nc(-c3ccccc3SSc3ccccc3-c3nc(-c4ccccc4)nn3-c3ccccc3)n(-c3ccccc3)n2)cc1`, the TGI was greater than 100 µM.

With `COCO[C@@H]1C[C@H]2C(=O)Nc3ccccc3C(=O)N2C1`, the TGI is greater than 100 µM.

The molecule `O=[N+]([O-])c1ccc2c(c1)c(OCc1ccccc1)nn2Cc1ccccc1` showed a TGI greater than 100 µM.

`O=C1CCCc2cc3c(cc21)CC1(Cc2ccccc2C1)C3` came in with a TGI of 18.7 µM.

Take `COC(=O)c1ccccc1CC1Cc2ccc3c(c2C1=O)CCCC3` (stereo unspecified): the TGI was greater than 100 µM.

A further test has as its system NCI-H460 lung. The test can be described thus: NCI tumour cell line growth inhibition, 48 h.
Molecule `COc1ccc(-c2cc(O)c3nc4ccccc4n3c2)cc1` had a TGI greater than 100 µM.

For `CCOC(=O)c1csc(NC(=O)CN2CCOCC2)n1`, the TGI was greater than 100 µM.

Take `CC(=O)NC(Cc1ccc(O)cc1)C(=O)O` (stereo unspecified): the TGI is greater than 100 µM.

`Cc1ccc(N=NC(=Nc2ccccc2)c2ccc(N(CCC#N)CCC#N)cc2)cc1` had a TGI of 45.5 µM.

As for `O=c1ccc(-c2ccccc2)n[nH]1`, the TGI is greater than 100 µM.

Regarding `CC(=O)O[C@@H]1[C@H](C(C)C)[C@@H](OC(C)=O)C/C(C)=C/CC[C@]2(C)O[C@@H]12`, the TGI was greater than 100 µM.

Regarding `C[C@@H]1CC[C@]2(C(=O)O)CC[C@]3(C)C(=CC[C@@H]4[C@@]5(C)CC[C@H](O)C(C)(C)[C@@H]5CC[C@]43C)[C@@H]2[C@]1(C)O`, the TGI was 17.3 µM.

As to `O=C(N/N=C(/COc1ccc(Cl)cc1)N=Cc1ccncc1)c1ccncc1`, the TGI was greater than 100 µM.

As for `COc1ccc2cc(NC(=O)N/N=C\c3ccc([N+](=O)[O-])cc3)ccc2c1`, the TGI was greater than 100 µM.

`COc1ccc(N/N=C2\CCOc3ccc(C)cc3C2=O)cc1` had a TGI of 53.7 µM.

The molecule `ClCCN1CCC2(CC1)SSC1(CCN(CCCl)CC1)S2` displayed a TGI greater than 100 µM.

`Nc1nc(SCCc2ccccc2)c2[nH]cnc2n1` gave a TGI greater than 100 µM.

The molecule `Cc1nc2n(c1/C=C1/C(=O)Nc3cccc(Cl)c31)CCS2` yielded a TGI greater than 100 µM.

`CCOC(=O)C(SCCO)C(C(=O)OCC)n1cnc2c(=O)[nH]c(NC(C)=O)nc21` (stereo unspecified) yielded a TGI greater than 100 µM.

Molecule `c1ccc(-c2nc(-c3ccccc3SSc3ccccc3-c3nc(-c4ccccc4)nn3-c3ccccc3)n(-c3ccccc3)n2)cc1` gave a TGI greater than 100 µM.

`Cc1ccc(Cl)c2[nH]c(-c3ccccc3)cc(=O)c12` yielded a TGI greater than 100 µM.

Molecule `CC(C)(C)OC(=O)NCCCCC1NC(=O)[C@@H]2Cc3c([nH]c4ccccc34)C(C3CCCCC3)N2C1=O` (stereo partly specified) had a TGI greater than 100 µM.

Regarding `O=[N+]([O-])c1ccc2c(c1)c(OCc1ccccc1)nn2Cc1ccccc1`, the TGI is greater than 100 µM.

With `COC(=O)c1ccccc1CC1Cc2ccc3c(c2C1=O)CCCC3` (stereo unspecified), the TGI was greater than 100 µM.

Turning to `COc1ccc2c(c1)/C(=C/CCN(C)C)c1ccccc1S2`, the TGI is greater than 100 µM.

Turning to `CC1(C)OC(=O)N(c2ccccc2)C12C=Cc1cc([N+](=O)[O-])cc([N+](=O)[O-])c1O2` (stereo unspecified), the TGI is greater than 100 µM.

The next test deals with LOX IMVI melanoma. The test can be described thus: NCI tumour cell line growth inhibition, 48 h.
For `COc1ccc(-c2cc(O)c3nc4ccccc4n3c2)cc1`, the TGI is greater than 100 µM.

The molecule `CCOC(=O)c1csc(NC(=O)CN2CCOCC2)n1` came in with a TGI greater than 100 µM.

As to `CC(=O)NC(Cc1ccc(O)cc1)C(=O)O` (stereo unspecified), the TGI was greater than 100 µM.

`O=c1ccc(-c2ccccc2)n[nH]1` had a TGI greater than 100 µM.

Turning to `CC(=O)O[C@@H]1[C@H](C(C)C)[C@@H](OC(C)=O)C/C(C)=C/CC[C@]2(C)O[C@@H]12`, the TGI was greater than 100 µM.

As for `C[C@@H]1CC[C@]2(C(=O)O)CC[C@]3(C)C(=CC[C@@H]4[C@@]5(C)CC[C@H](O)C(C)(C)[C@@H]5CC[C@]43C)[C@@H]2[C@]1(C)O`, the TGI amounted to 29.5 µM.

The molecule `O=C(N/N=C(/COc1ccc(Cl)cc1)N=Cc1ccncc1)c1ccncc1` showed a TGI greater than 100 µM.

As to `C1CN(c2nc3c(nnc4nc(N5CCOCC5)sc43)s2)CCO1`, the TGI was greater than 100 µM.

For `COc1ccc2cc(NC(=O)N/N=C\c3ccc([N+](=O)[O-])cc3)ccc2c1`, the TGI is greater than 100 µM.

Regarding `COc1ccc(N/N=C2\CCOc3ccc(C)cc3C2=O)cc1`, the TGI worked out at 30.9 µM.

In turn, `ClCCN1CCC2(CC1)SSC1(CCN(CCCl)CC1)S2` yielded a TGI greater than 100 µM.

The molecule `Nc1nc(SCCc2ccccc2)c2[nH]cnc2n1` yielded a TGI greater than 100 µM.

`Cc1nc2n(c1/C=C1/C(=O)Nc3cccc(Cl)c31)CCS2` returned a TGI greater than 100 µM.

`CCOC(=O)C(SCCO)C(C(=O)OCC)n1cnc2c(=O)[nH]c(NC(C)=O)nc21` (stereo unspecified) gave a TGI greater than 100 µM.

As for `c1ccc(-c2nc(-c3ccccc3SSc3ccccc3-c3nc(-c4ccccc4)nn3-c3ccccc3)n(-c3ccccc3)n2)cc1`, the TGI is greater than 100 µM.

For the molecule `COCO[C@@H]1C[C@H]2C(=O)Nc3ccccc3C(=O)N2C1`, the TGI was greater than 100 µM.

For `Cc1ccc(Cl)c2[nH]c(-c3ccccc3)cc(=O)c12`, the TGI is greater than 100 µM.

`CC(C)(C)OC(=O)NCCCCC1NC(=O)[C@@H]2Cc3c([nH]c4ccccc34)C(C3CCCCC3)N2C1=O` (stereo partly specified) displayed a TGI greater than 100 µM.

In turn, `O=[N+]([O-])c1ccc2c(c1)c(OCc1ccccc1)nn2Cc1ccccc1` gave a TGI greater than 100 µM.

Regarding `O=C1CCCc2cc3c(cc21)CC1(Cc2ccccc2C1)C3`, the TGI was 28.6 µM.

`COC(=O)c1ccccc1CC1Cc2ccc3c(c2C1=O)CCCC3` (stereo unspecified) returned a TGI greater than 87 µM.

For the molecule `COc1ccc2c(c1)/C(=C/CCN(C)C)c1ccccc1S2`, the TGI was greater than 100 µM.

`N#CC1(C#N)N[C@@H](c2ccsc2)[C@H]2C(=O)N(c3ccccc3)C(=O)[C@H]21` had a TGI greater than 100 µM.

In the case of `CC1(C)OC(=O)N(c2ccccc2)C12C=Cc1cc([N+](=O)[O-])cc([N+](=O)[O-])c1O2` (stereo unspecified), the TGI is greater than 100 µM.
